Assay results taken from patent US9868763B2, “Modulators of protease activated receptors” (The University of Queensland, priority 2011, dated 2018).
Blank lines part the entries; values can stand above or below the compound they belong to.

Key:
PAR2 [1] = target: T1, PAR2 (Homo sapiens, UniProt P55085); conditions: cited from earlier work
T1 sequence (P55085 26-397): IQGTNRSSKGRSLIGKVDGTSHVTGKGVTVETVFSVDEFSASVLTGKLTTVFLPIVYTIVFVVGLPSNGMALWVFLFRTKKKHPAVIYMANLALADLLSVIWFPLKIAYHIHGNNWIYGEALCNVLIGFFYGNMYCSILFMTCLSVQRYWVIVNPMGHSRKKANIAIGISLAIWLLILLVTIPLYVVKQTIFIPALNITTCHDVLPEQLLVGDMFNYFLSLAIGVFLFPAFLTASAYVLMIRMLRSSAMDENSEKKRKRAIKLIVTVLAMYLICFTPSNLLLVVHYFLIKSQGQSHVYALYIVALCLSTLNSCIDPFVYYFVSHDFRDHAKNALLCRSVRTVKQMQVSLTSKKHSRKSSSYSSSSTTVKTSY

[2] = system: 2furoyl-LIGRLO-NH2-induced paw oedema; test: PAR2 agonist-induced paw oedema; assay type: in vivo, Wistar rat; conditions: 10 mg/kg p.o. in olive oil, agonist 350 μg/paw 2 h after oral dose
Method: The methods used are based on those previously described (Kelso, E. B., et al. Arthritis Rheum 2007, 56, 765-71; Kelso, E. B., et al. J Pharmacol Exp Ther 2006, 316, 1017-24; and Vergnolle, N. J Immunol 1999, 163, 5064-9). Male Wistar rats (n=3 per group) are used. Briefly, rats are given either 5 or 10 mg/kg of a compound of the present invention (p.o. via gavage in olive oil, approx. 500 μL, weight adjusted). Control animals receive only olive oil (500 μL p.o.). Two hours later, the PAR2 agonist 2-furoyl-LIGRLO (350 μg/paw in saline, 100 μL) is injected into the plantar surface (i.pl.) of the right paw pad using a 30 G needle. The left paw acts as a control, receiving saline only. Paw thickness and width are measured after 30 minutes and hourly using digital calipers (World Precision Instruments, USA) and swelling is calculated in area (mm^2; thickness multiplied by width) and expressed as a percentage change from baseline of each individual paw.
Based on previous methods (Kelso E B et al., J Pharmacol Exp Ther 2006, 316(3):1017-24; Suen J Y et al., Br J Pharmacol 2011, doi: 10.1111/j.1476-5381.2011.01610.x.), PAR2 antagonist 52 (10 mg/kg s.c.; n=4), ENMD-1068 (100 mg/kg s.c.; n=4) or vehicle control (DMSO s.c.; n=2) were administered to male Wistar rats. Baseline paw thickness and width were measured using digital calipers (World Precision Instruments, USA) expressed in area (mm^2; thickness×width). Fifteen minutes later, 2Furoyl-LIGLRO-NH2 (350 μg/paw in 100 μL saline) was injected into of the right hind paw pad (intraplantar, i.pl.). The left hind paw acted as a control, receiving saline only. In a separate experiment, vehicle (500 μL olive oil) versus PAR2 antagonist 52 (10 mg/kg p.o. in 500 μL olive oil) only were administered orally to two groups of rats (4 per group). Two hours later, β-tryptase (human recombinant lung, 20 μg in 100 μL saline) was injected into the right hind paw pad (vehicle in left for control) of all animals in each group. In all experiments, paw swelling was measured and expressed in area (mm^2; thickness×width) and plotted as % change from baseline of each individual paw.

[3] = Stability in rat liver homogenate; assay type: in vitro ADME, Wistar rat; conditions: 37 °C, up to 180 min
Method: Blood and liver is collected form non-drug dosed male and female Wistar rats (aged 8-9 weeks, 200-250 g and 250-300 g respectively). Bloods are centrifuged at 8 K rpm for 5 min. Plasma are pooled and stored at −80° C. for later use. The rat livers are homogenized, diluted with three volumes of PBS, cloth filtered. The filtrate is used directly for stability studies.
Each compound is dissolved in DMSO to make 5 mM stock solution. 10 μL of the stock is diluted with either rat plasma or liver homogenate (490 μL) to make up a starting concentration of […] (triplicates). The mixtures are vortexed and incubated at 37° C. At each time point of 0, 30, 60 and 180 minutes, 100 μL of the mixture is taken and diluted with 300 μL of acetonitrile. The mixture is vortexed and centrifuged. 350 μL of the liquid is transferred into a microfuge tube and concentrated using a rotational vacuum concentrator (Christ Beta-RVC, supplied by Quantum Scientific). 100 μL of acetonitrile-water (9:1, v/v) is added to the residue, vortexed and immediately analysed by LCMS/MS. Data from these experiments are expressed as percent of peak area recorded from the LCMS/MS trace at time zero (t0).

PAR2 [4] = target: T1, PAR2; test: PAR2 agonist inhibition (antagonism): intracellular Ca2+ release in HT29 cells; assay type: cell-based; set-up: endogenous in cells; host or cells: HT29 (human colorectal adenocarcinoma); conditions: other ligands; inhibiting Ca2+ release in HT29 cells; 30 min pre-incubation, agonist at EC80
Method: Cells are seeded overnight in 96-well black walled, clear bottomed, plate at approximately 2×10^4 to 4×10^5 cells per well. […] The cells are then washed twice with HBSS and transferred to a Polarstar spectrofluorimeter (BMG, Durham N.C.).
The cells are prepared as outlined above then treated with the ‘putative’ antagonist 30 min prior to the addition of either trypsin or a synthetic agonist at a concentration equal to the agonists EC80.
The cells were then treated with 1 μM of the PAR2 agonist 2f-LIGRLO-NH2 (FIG. 2A, n=5) or 100 nM Trypsin (FIG. 2B, n=1). Each data point represents mean±SEM. Net changes in fluorescence were calculated as a percentage relative to the maximum response given 1 μM 2f-LIGRLO-NH2 or 100 nM Trypsin. Changes in fluorescence (% response) were plotted against logarithmic compound concentrations. The half maximal inhibitory concentration (IC50) values were derived from the dose response curve using a nonlinear regression curve in Graphpad Prism v5.

[5] = system: TNBS-induced chronic colitis; test: TNBS-induced chronic colitis model; assay type: in vivo, rat; conditions: 52 10 mg/kg/day, sulfasalazine 100 mg/kg/day p.o.
Method: On day 0, rats were weighed, given respective treatments of either sulfasalazine (100 mg/kg in olive oil p.o.), compound 52 (10 mg/kg in olive oil), or vehicle (500 l olive oil p.o.), and fasted for 24 h with water supplied ad libitum. The next day (day 1), rats were weighed, dosed with respective compound, and anesthetized with isofluorane. A polyethylene catheter was inserted intrarectally (8 cm). Control and drug-treated animals received an intracolonic dose of TNBS (80 mg/kg in saline and 250 l, 50% ethanol in water) (Fiorucci at al., 2001). Sham animals received vehicle only, with TNBS replaced by equivolume water. Rats were maintained in an inclined position (40°) for 30 min, then allowed to recover with food and water supplied. Rats were dosed daily with the respective compound, weighed, and scored for general health and disease progression. All rats were sacrificed on day 8 of experimentation unless they were sacrificed earlier. Disease progression and post-mortem colonic histopathology was scored by the following methods. PAR2 and tryptase co-localization were investigated by using immunohistochemistry.
DAI for both acute and chronic models was assessed and scored by an expert blinded to treatments. Scores incorporated mobility, gastrointestinal pathology, discomfort, and generalized sickness behaviour criteria (each scored 0-3). Any animal that reached stage 3 in any criteria was euthanized by CO2 inhalation and recorded as a disease-related mortality. Scores were summed and expressed as total disease score (maximum 12). DAI was measured at endpoint only (10 h) in the acute study and daily in the chronic TNBS study.
Colons were dissected post-mortem and given a macroscopic disease score based on that described previously (Bobin-Dubigeon et al., 2001) with some minor alterations (maximal score 14). The entire colon length was removed between the ileocolic and colorectal junction. Length and maximal distension width were measured. Sections of affected colon were taken for biochemical analysis, histology, and wet/dry weight.

PAR2 [6] = target: T2, PAR2 (Mus musculus, UniProt P55086); test: Intracellular calcium mobilization in MIN6 beta cells; assay type: cell-based; conditions: concentration-dependent
T2 construct: endogenous in cells; host or cells: MIN6 (mouse pancreatic beta cell line)
T2 sequence (P55086 26-399): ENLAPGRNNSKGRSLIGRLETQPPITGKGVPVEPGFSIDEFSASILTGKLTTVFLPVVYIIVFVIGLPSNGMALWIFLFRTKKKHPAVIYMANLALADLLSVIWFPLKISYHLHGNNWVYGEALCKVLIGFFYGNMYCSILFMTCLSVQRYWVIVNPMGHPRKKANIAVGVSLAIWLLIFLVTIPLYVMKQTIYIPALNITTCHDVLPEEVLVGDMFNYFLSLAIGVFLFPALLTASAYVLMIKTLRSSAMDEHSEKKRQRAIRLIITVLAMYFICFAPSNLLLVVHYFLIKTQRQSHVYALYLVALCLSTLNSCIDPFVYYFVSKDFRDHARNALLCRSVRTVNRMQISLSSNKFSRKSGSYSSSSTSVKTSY
Method: Results: Pathogenesis of pancreatic dysfunction is linked to chronic nutritional surplus and elevated fatty acids, so in vivo and in vitro effects of compound 52 were evaluated on rat pancreas and mouse MIN6 beta cells. […] PAR2 agonists and compound 52 were further evaluated in vitro for glucose-stimulated insulin secretion (GSIS) and intracellular calcium mobilization in mouse MIN6 beta cells.

Compound: 2-furoyl-LIGRL-NH2
agonist potency higher than SLIGRL-NH2 (PAR2 [1]): ~20 fold
selectivity among PARs (PAR2 [1]): selective for PAR2 over PAR1 and PAR4

stability in rat liver homogenate [3]: decomposed to varied degree
Compound: CC[C@H](C)[C@H](NC(=O)[C@H](CC1CCCCC1)NC(=O)c1ccno1)C(=O)NCc1ccccc1OC [Compound 18, 5-isoxazoyl-Cha-Ile-aminomethyl-(2-methoxy)phenyl]
paw swelling induced by 2-f-LIGRLO-NH2 [2]: reduced the paw swelling

Compound: CC[C@H](C)[C@H](NC(=O)[C@H](CC1CCCCC1)NC(=O)c1ccno1)C(=O)N1CCC(c2ccccc2)CC1 [Compound 30, 5-isoxazoyl-Cha-Ile-(4-phenyl)piperidine]
paw swelling induced by 2-f-LIGRLO-NH2 [2]: reduced the paw swelling
stability in rat liver homogenate [3]: decomposed to varied degree

IC50 (PAR2 [4]): 17 µM
Compound: CC[C@H](C)[C@@H](NC(=O)[C@@H](N)CC1CCCCC1)C(=O)N1CCC2(C=Cc3ccccc32)CC1 [Compound 41]

stability in rat liver homogenate [3]: decomposed to varied degree
Compound: CC[C@H](C)[C@@H](NC(=O)[C@H](CC1CCCCC1)NC(=O)c1cc(N)no1)C(=O)N1CCC2(C=Cc3ccccc32)CC1 [Compound 42, 5-(3-amino-isoxazoyl)-Cha-Ile-spiro[indene-1,4′-piperidine]]
paw swelling induced by 2-f-LIGRLO-NH2 [2]: reduced the paw swelling

stability in rat liver homogenate [3]: decomposed to varied degree
Compound: CO[C@H](C)[C@@H](NC(=O)[C@H](CC1CCCCC1)NC(=O)c1ccno1)C(=O)N1CCC2(C=Cc3ccccc32)CC1 [Compound 44, 5-isoxazoyl-Cha-Thr(Me)-spiro[indene-1,4′-piperidine]]
paw swelling induced by 2-f-LIGRLO-NH2 [2]: reduced the paw swelling

IC50 (PAR2 [4]): 15 µM
Compound: CC[C@H](C)[C@@H](NC(=O)[C@H](CC1CCCCC1)NC(=O)c1nc[nH]n1)C(=O)N1CCC2(C=Cc3ccccc32)CC1 [Compound 45]

IC50 (PAR2 [4]): 25 µM
Compound: CC[C@H](C)[C@@H](NC(=O)[C@H](CC1CCCCC1)NC(=O)c1cc(C)on1)C(=O)N1CCC2(C=Cc3ccccc32)CC1 [Compound 46]

IC50 (PAR2 [4]): 10 µM
Compound: CC[C@H](C)[C@@H](NC(=O)[C@H](CC1CCCCC1)NC(=O)c1c[nH]cn1)C(=O)N1CCC2(C=Cc3ccccc32)CC1 [Compound 47]

IC50 (PAR2 [4]): 50 µM
Compound: CC[C@H](C)[C@@H](NC(=O)[C@H](CC1CCCCC1)NC(=O)C1CCNCC1)C(=O)N1CCC2(C=Cc3ccccc32)CC1 [Compound 48]

IC50 (PAR2 [4]): 25 µM
Compound: CC[C@H](C)[C@@H](NC(=O)[C@H](CC1CCCCC1)NC(=O)C1CCC(=O)N1)C(=O)N1CCC2(C=Cc3ccccc32)CC1 (some centres unmarked) [Compound 49]

IC50 (PAR2 [4]): 50 µM
Compound: CC[C@H](C)[C@@H](NC(=O)[C@H](CC1CCCCC1)NC(=O)C1CCCN1)C(=O)N1CCC2(C=Cc3ccccc32)CC1 (some centres unmarked) [Compound 50]

IC50 (PAR2 [4]): 5 to 10 µM
Compound: CC[C@H](C)[C@H](C(=O)N1CCC2(C=Cc3ccccc32)CC1)N(C)C(=O)[C@@H](N)CC1CCCCC1 [Compound 51]

IC50 (PAR2 [4]): 3 µM
Compound: CC[C@H](C)[C@@H](NC(=O)[C@H](CC1CCCCC1)NC(=O)c1ccno1)C(=O)N1CCC2(CCc3ccccc32)CC1 [Compound 53]

Compound: O=C(O)c1cc(/N=N/c2ccc(S(=O)(=O)Nc3ccccn3)cc2)ccc1O [sulfasalazine, reference compound]
TNBS-mediated mortality [5]: 33.3%
DAI compared with TNBS-controls ([5]; from day 2 onward): marked improvements in DAI

intracellular calcium release in MIN6 beta cells (PAR2 [6]): activated intracellular calcium release
Compound: SLIGRL-NH2

intracellular calcium release in MIN6 beta cells (PAR2 [6]): activated intracellular calcium release
Compound: trypsin
